Reference: ChEMBL document CHEMBL1201862, “PubChem BioAssay data set” (2004)
Active and inactive are the calls of the source.

What was measured:
[1] = biological target: T1, X-box-binding protein 1 (Homo sapiens, UniProt P17861); type: functional, Cricetulus griseus;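 note: confirmatory dose-response counter-screen serving a CHOP assay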
T1 sequence (P17861 whole entry): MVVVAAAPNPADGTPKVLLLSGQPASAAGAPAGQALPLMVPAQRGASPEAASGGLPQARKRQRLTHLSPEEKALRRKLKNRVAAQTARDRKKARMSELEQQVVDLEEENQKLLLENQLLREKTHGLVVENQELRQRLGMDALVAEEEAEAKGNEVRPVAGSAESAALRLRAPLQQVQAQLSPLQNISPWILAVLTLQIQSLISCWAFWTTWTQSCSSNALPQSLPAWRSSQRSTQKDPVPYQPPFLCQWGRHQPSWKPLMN

[2] = intracellular Trypanosoma cruzi inhibitors in host cells – cell-based, plate reader, cherry-pick samples, set 3, dose response (AID 651818); type: functional;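 note: compounds incubated with infected cells for about four days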
[3] = system: Vero; experiment: mammalian cell viability reduction – secondary assay, cytotoxicity control for West Nile virus antiviral project, dose response (AID 1650); type: functional; conditions: Chlorocebus sabaeus
[4] = Luminescence Cell-Based Dose Response HTS to Identify Inhibitors of 5'UTR Stem-Loop Driven Prion Protein mRNA Translation in H4 Neuroglioblastoma Cells. [Related pubchem assays: 1827 (Project Summary), 1813 (Primary HTS)]; type: functional
[5] = luciferase reporter signal suppression in cells – H4 neuroglioma cells, luminescence, dose response (AID 1990); type: functional, cell-based
[6] = biological target: Prothrombin (Homo sapiens, UniProt P00734); experiment: Thrombin 1536 HTS Dose Response Confirmation. [Related pubchem assays: 1046 (Thrombin 1536 HTS; hits were confirmed in this assay)]; type: functional
[7] = alpha-synuclein stem-loop luciferase translation blockers – H4 neuroglioma cells, luminescence, confirmation (AID 1988); type: functional, cell-based
[8] = system: Streptococcus sp. 'group A'; experiment: Streptococcus pyogenes SK(-)GAS viability under kanamycin – luminescence, BacTiterGlo, confirmation, counter-screen for streptokinase expression inhibitor project, dose response (AID 1900); type: functional, organism-based; conditions: Streptococcus sp. 'group A'
[9] = cells; type: functional, cell-based
[10] = microbe, parasite or virus in culture; type: functional; conditions: Mycobacterium tuberculosis
[11] = Trypanosoma cruzi growth suppression in host cells – NIH3T3 host cells, beta-gal luminescence, confirmation (AID 2044); type: functional, cell-based;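 note: intracellular parasites grown in NIH/3T3 mouse fibroblasts as host cells; luminescent beta-galactosidase reporter signal from transgenic T. cruzi replicating inside host cells; inhibitors lower the luminescence signal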
[12] = NIH3T3 cell viability loss – ATP luminescence, mouse fibroblasts, counter-screen, dose response (AID 2010); type: functional, cell-based;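 note: cells exposed to compound for about 90 hours before reading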
[13] = cells; type: functional, cell-based; remark: listed apart in the source
[14] = system: Streptococcus; experiment: GAS UMAA2166 growth inhibition – luminescence, BacTiterGlo, counter-screen for streptokinase expression inhibitor project, dose response (AID 1915); type: functional, organism-based; conditions: Streptococcus;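 note: potency for reduction of bacterial viability or growth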
[15] = biological target: T2, Short transient receptor potential channel 4 (Mus musculus, UniProt Q9QUQ5); experiment: block of DAMGO-driven TRPC4 calcium entry – cell-based, HEK293 TRPC4/mu-opioid, Fluo-4 calcium, dose response (AID 434942); type: functional;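 note: potency of inhibitors blocking the TRPC4 calcium response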
T2 sequence (Q9QUQ5 whole entry): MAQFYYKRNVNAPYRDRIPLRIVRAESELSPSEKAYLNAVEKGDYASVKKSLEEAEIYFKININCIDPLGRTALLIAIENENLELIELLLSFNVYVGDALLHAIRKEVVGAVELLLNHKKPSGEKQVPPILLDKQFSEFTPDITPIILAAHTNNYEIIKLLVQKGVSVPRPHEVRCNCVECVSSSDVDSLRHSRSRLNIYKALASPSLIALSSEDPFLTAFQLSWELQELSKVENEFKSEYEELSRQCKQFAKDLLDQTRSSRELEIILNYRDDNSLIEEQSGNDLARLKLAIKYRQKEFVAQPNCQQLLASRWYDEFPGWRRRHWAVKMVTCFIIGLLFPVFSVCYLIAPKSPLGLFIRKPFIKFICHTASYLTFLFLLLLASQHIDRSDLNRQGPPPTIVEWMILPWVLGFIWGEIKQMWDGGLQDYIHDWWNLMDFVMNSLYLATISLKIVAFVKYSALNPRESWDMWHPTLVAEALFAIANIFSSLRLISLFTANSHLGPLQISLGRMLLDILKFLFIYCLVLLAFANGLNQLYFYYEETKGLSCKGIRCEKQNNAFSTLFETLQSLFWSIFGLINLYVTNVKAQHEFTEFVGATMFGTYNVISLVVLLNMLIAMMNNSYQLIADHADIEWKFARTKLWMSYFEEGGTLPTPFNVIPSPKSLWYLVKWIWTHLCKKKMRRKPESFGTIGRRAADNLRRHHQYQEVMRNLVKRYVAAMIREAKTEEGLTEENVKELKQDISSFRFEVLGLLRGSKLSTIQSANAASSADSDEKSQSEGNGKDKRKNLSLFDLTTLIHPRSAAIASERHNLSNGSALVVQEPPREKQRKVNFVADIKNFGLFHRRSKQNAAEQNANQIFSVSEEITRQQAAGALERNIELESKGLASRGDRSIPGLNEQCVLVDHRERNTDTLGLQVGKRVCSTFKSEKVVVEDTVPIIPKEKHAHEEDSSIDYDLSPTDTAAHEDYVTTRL

Oc1ccc(Br)cc1-c1nc2cnccn2c1NC1CCCCC1
Absolute IC50 (XBP1) [1]: 10 µM

C[C@@H]1CN([C@H](C)CO)C(=O)c2cccc(NC(=O)C3CCCCC3)c2O[C@H]1CN(C)Cc1ccc(Cl)c(Cl)c1
AC50 [2]: 3.93 µM (active)

O=C(Nc1ccccc1-c1nc2ccccc2s1)c1ccco1
CC50 [3]: 12.8 µM (active)

C=CCc1cccc(/C=N/NC(=O)CNc2ccccc2)c1O
EC50 [4]: 10.7 µM (active) | EC50 [5]: > 120 µM (not active) | IC50 [6]: > 50 µM (not active) | EC50 [7]: > 120 µM (not active)

CCC(=O)N1N=C(c2c(O)nc3ccc(Cl)cc3c2-c2ccccc2)CC1c1ccco1 (centres undefined)
Absolute IC50 (XBP1) [1]: 10 µM | CC50 [3]: 73.3 µM (active)

Cc1cccc(C)c1Nc1c(-c2ccccn2)nc2ccccn12
EC50 [8]: 2.52 µM (active) | EC50 [9]: 92.4 µM (active) | CC50 [10]: 3.91 µM (active) | EC50 [11]: 1.45 µM (active) | EC50 [12]: 6.81 µM (active) | EC50 [13]: > 350 µM (not active) | EC50 [14]: 6.43 µM (active) | CC50 [3]: 4.16 µM (active)

C[C@H]1CN([C@@H](C)CO)C(=O)c2cc(NS(=O)(=O)c3ccc(F)cc3)ccc2O[C@@H]1CN(C)Cc1ccc(Oc2ccccc2)cc1
AC50 [2]: 3.72 µM (active)

CCCNCc1cc(Br)ccc1OCC(=O)NCCc1ccccc1
EC50 [15]: 0.841 µM (active)
